From ChEMBL document CHEMBL5634077, “Recent advances in 1,2,3- and 1,2,4-triazole hybrids as antimicrobials and their SAR: A critical review” (2023) come the findings set out here.

≈ marks a conversion by molar mass, not a printed value.

One assay has as its system Klebsiella pneumoniae. The assay is described as follows: Antimicrobial activity against Klebsiella pneumoniae assessed as diameter of inhibition zone incubated for 24 hrs by disc-diffusion method. The format is functional. In general terms: A growth-free zone around the sample is the usual read-out of agar diffusion tests.
Assay [1] concerns Staphylococcus aureus. Briefly: Antimicrobial activity against Staphylococcus aureus assessed as diameter of inhibition zone incubated for 24 hrs by disc-diffusion method. Format: functional.
The subject of assay [2] is Escherichia coli. Briefly: Antimicrobial activity against Escherichia coli assessed as diameter of inhibition zone incubated for 24 hrs by disc-diffusion method. Format: functional.
Assay [3] has as its system Candida albicans. The assay is described as follows: Antimicrobial activity against Candida albicans assessed as diameter of inhibition zone incubated for 24 hrs by disc-diffusion method. The format is functional.
Assay [4] deals with Candida albicans. The assay is described as follows: Antifungal activity against Candida albicans ATCC 90028 assessed as growth inhibition incubated for 24 hrs. The format is functional.
In assay [5] the test system is Cryptococcus neoformans. Briefly: Antifungal activity against Cryptococcus neoformans 32609 assessed as reduction in fungal growth incubated for 72 hrs by NCCLS based assay. Format: functional.
In a further assay the test system is Trichophyton rubrum. Briefly: Antifungal activity against Trichophyton rubrum assessed as reduction in fungal growth incubated for 5 to 7 days by NCCLS based assay. Format: functional. The conditions noted are these: time 5-7 day.
The test system of assay [6] is Candida albicans. The assay is described as follows: Antifungal activity against Candida albicans SC5314 assessed as reduction in fungal growth incubated for 24 hrs by NCCLS based assay. The format is functional.
A further assay relates to Nannizzia gypsea. Briefly: Antifungal activity against Microsporum gypseum assessed as reduction in fungal growth incubated for 5 to 7 days by NCCLS based assay. The format is functional. The conditions noted are these: time 5-7 day.
Assay [7] concerns Aspergillus fumigatus. Briefly: Antifungal activity against Aspergillus fumigatus 7544 assessed as reduction in fungal growth incubated for 5 to 7 days by NCCLS based assay. Format: functional. The conditions noted are these: time 5-7 day.
In assay [8] the test system is Candida albicans. Briefly: Antifungal activity against Candida albicans Y0109 assessed as reduction in fungal growth incubated for 24 hrs by NCCLS based assay. The format is functional.
In a further assay the test system is Nakaseomyces glabratus. Briefly: Antifungal activity against Candida glabrata 537 assessed as reduction in fungal growth incubated for 72 hrs by NCCLS based assay. The format is functional.
Assay [9] concerns Pseudomonas aeruginosa. The assay is described as follows: Antibacterial activity against Pseudomonas aeruginosa MTCC 1034 assessed as reduction in bacterial growth. Format: functional.
For assay [10], the system named is Bacillus subtilis. The assay is described as follows: Antibacterial activity against Bacillus subtilis MTCC 441 assessed as reduction in bacterial growth. The format is functional.
Assay [11] relates to Escherichia coli. The assay is described as follows: Antibacterial activity against Escherichia coli ATCC 8739 assessed as reduction in bacterial growth by micro-broth dilution method. Format: functional.
The subject of assay [12] is Aspergillus fumigatus. Briefly: […] activity against Aspergillus fumigatus NCIM 2081 assessed as reduction in […] by micro-broth dilution method. The format is functional.
Assay [13] has as its system Pseudomonas aeruginosa. Briefly: Antibacterial activity against Pseudomonas aeruginosa MCCB 0035 assessed as reduction in bacterial growth by micro-broth dilution method. Format: functional.
Assay [14] relates to Candida albicans. The assay is described as follows: Antifungal activity against Candida albicans NCIM 2087 assessed as fungal growth inhibition. Format: functional.
Assay [15] concerns Staphylococcus aureus. The assay is described as follows: Antibacterial activity against Staphylococcus aureus ATCC 29213 assessed as reduction in bacterial growth by micro-broth dilution method. The format is functional. In general terms: Broth dilution looks for growth in wells or tubes with falling amounts of substance.
The subject of a further assay is Aspergillus niger. The assay is described as follows: […] activity against Aspergillus niger NCIM 2191 assessed as reduction in […] by micro-broth dilution method. Format: functional.
Assay [16] concerns Staphylococcus aureus. Briefly: Antibacterial activity against methicillin resistant Staphylococcus aureus incubated for 20 hrs by broth microdilution method. Format: functional.
For assay [17], the system named is Staphylococcus aureus. The assay is described as follows: Antibacterial activity against Staphylococcus aureus assessed as diameter of inhibition zone. Format: functional.
A further assay has as its system Micrococcus luteus. Briefly: Antibacterial activity against Micrococcus luteus IFC 12708 assessed as reduction in microbial growth. Format: functional.
Assay [18] relates to Staphylococcus aureus. Briefly: Antibacterial activity against Staphylococcus aureus ATCC 6538p assessed as reduction in microbial growth. The format is functional.
The test system of a further assay is Proteus vulgaris. The assay is described as follows: Antibacterial activity against Proteus vulgaris ATCC 3851 assessed as reduction in microbial growth. Format: functional.
For assay [19], the system named is Escherichia coli. The assay is described as follows: Antibacterial activity against Escherichia coli ATCC 25922 assessed as reduction in microbial growth. Format: functional.
In assay [20] the test system is Bacillus subtilis. The assay is described as follows: Antibacterial activity against Bacillus subtilis ATCC 6633 assessed as reduction in microbial growth. The format is functional.
A further assay has as its system Salmonella typhimurium. The assay is described as follows: Antibacterial activity against Salmonella typhimurium SL1344 assessed as reduction in microbial growth. The conditions noted are these: Salmonella enterica. The format is functional, Salmonella enterica subsp. enterica serovar Typhimurium.
For assay [21], the system named is Candida albicans. The assay is described as follows: Antifungal activity against Candida albicans assessed as fungal growth inhibition by CLSI based method. The format is functional.
Assay [22] relates to Cryptococcus neoformans. Briefly: Antifungal activity against Cryptococcus neoformans assessed as fungal growth inhibition by CLSI based method. Format: functional.
In another assay the test system is Rhizopus. The assay is described as follows: Antifungal activity against Rhizopus assessed as inhibition of fungal growth. Format: functional.
In assay [23] the test system is Candida albicans. The assay is described as follows: Antifungal activity against Candida albicans assessed as inhibition of fungal growth. The format is functional.
For the next assay, the system named is Aspergillus flavus. Briefly: Antifungal activity against Aspergillus flavus assessed as inhibition of fungal growth. The format is functional.

With `COc1cc(/C=N/n2c(-c3ccc(Cl)cc3)n[nH]c2=S)ccc1O`, the “diameter of the inhibition zone (DIZ)” value in the assay with Klebsiella pneumoniae, in the assay on Staphylococcus aureus [1], in the assay on Escherichia coli [2] and in the assay on Candida albicans [3] was 4 mm throughout.

For the molecule `[N-]=[N+]=Nc1ccc(-n2cc(Cn3c(=O)sc4cc(Br)ccc43)nn2)c(Cl)c1`, the “growth inhibition (GI)” value in the assay with Candida albicans [4] is on record as 63.7%.

On to `COc1ccc(-c2cc(CO[C@H](C)[C@](O)(Cn3cncn3)c3ccc(F)cc3F)on2)cc1`, for which the MIC80 turned out to be 1 µg/mL (≈ 2.19 µM) in the assay on Cryptococcus neoformans [5]; 1 µg/mL (≈ 2.19 µM) with Trichophyton rubrum; 0.5 µg/mL (≈ 1.1 µM) in the assay on Candida albicans [6]; 1 µg/mL (≈ 2.19 µM) in the assay on Nannizzia gypsea; 4 µg/mL (≈ 8.76 µM) with Aspergillus fumigatus [7]; 0.125 µg/mL (≈ 0.274 µM) in the assay with Candida albicans [8]. The MIC80 with Nakaseomyces glabratus amounted to 0.5 µg/mL (≈ 1.1 µM).

As to `C=CCCC1CC(=O)N1Cc1cn(-c2ccc(OC)cc2)nn1` (stereo not given), the MIC in the assay on Pseudomonas aeruginosa [9] and with Bacillus subtilis [10] was 1.25 µg/mL (≈ 4 µM) each time.

Turning to `O=c1cc(-c2ccccc2)c2cc(F)ccc2n1Cc1nnc2n1N=C(c1ccccc1)CS2`, the MIC in the assay on Escherichia coli [11] amounted to 8 µg/mL (≈ 17.1 µM); in the assay on Aspergillus fumigatus [12] it was 4 µg/mL (≈ 8.56 µM); in the assay with Pseudomonas aeruginosa [13] it was 8 µg/mL (≈ 17.1 µM); with Candida albicans [14], 2 µg/mL (≈ 4.28 µM); in the assay on Staphylococcus aureus [15], 2 µg/mL (≈ 4.28 µM); in the assay on Aspergillus niger, 4 µg/mL (≈ 8.56 µM).

In the case of `COc1cc(/C=C/c2ccc(OCc3cn(CCC(=O)O)nn3)cc2)cc(OC)c1`, in the assay with Staphylococcus aureus [16], the MIC turned out to be 625 µg/mL (≈ 1530 µM).

`CCCCC(=O)c1cc(C(=O)CCCC)cc(-n2cc(C(C)N3C(=O)C(=O)c4ccccc43)nn2)c1` (stereo not given): the “diameter of the inhibition zone (DIZ)” value in the assay with Staphylococcus aureus [17] is reported as 6 mm.

Take `CCCNC(=O)c1nnn(-c2ccc(CC)cc2)c1C`: the “growth inhibition (GI)” value with Candida albicans [4] is on record as 14.1%.

Turning to `Cc1c(-c2nn(-c3ccccc3)cc2C2SCC(=O)N2c2ccc(F)cc2)nnn1-c1ccccc1` (stereo not given), the MIC in the assay with Micrococcus luteus, with Staphylococcus aureus [18], with Proteus vulgaris, in the assay on Escherichia coli [19], in the assay on Bacillus subtilis [20] and in the assay with Salmonella typhimurium was 1.56 µg/mL each time.

With `C=CCCC1CC(=O)N1Cc1cn(-c2cccc(Cl)c2)nn1` (stereo not given), the MIC in the assay on Pseudomonas aeruginosa [9] and in the assay with Bacillus subtilis [10] was 1.25 µg/mL (≈ 3.95 µM) in each case.

As to `C=CCCC1CC(=O)N1Cc1cn(-c2ccc([N+](=O)[O-])cc2)nn1` (stereo not given), the MIC in the assay with Pseudomonas aeruginosa [9] and in the assay on Bacillus subtilis [10] was 1.25 µg/mL (≈ 3.82 µM) each time.

In the case of `O=C(c1ccc(F)cc1)C(Cc1ccccc1)n1cncn1` (stereo not given), the MIC in the assay on Candida albicans [21] and with Cryptococcus neoformans [22] was 0.5 µg/mL (≈ 1.69 µM) throughout.

Regarding `O=C(c1ccc(Cl)cc1)C(Cc1ccccc1)n1cncn1` (stereo not given), the MIC in the assay on Candida albicans [21] and in the assay on Cryptococcus neoformans [22] was 0.5 µg/mL (≈ 1.6 µM) in each case.

As to `COCCOCCOCCOCCOC(=O)c1cc(C(=O)OCCOCCOCCOC)cc(-n2cc(CN3C(=O)C(=O)c4ccccc43)nn2)c1`, the “diameter of the inhibition zone (DIZ)” value in the assay with Staphylococcus aureus [17] is on record as 12 mm.

For the molecule `CC(c1cn(-c2cnc(-c3ccccc3)c(-c3ccccc3)n2)nn1)N1C(=O)C(=O)c2ccccc21` (stereo not given), the “diameter of the inhibition zone (DIZ)” value in the assay with Staphylococcus aureus [17] came to 6 mm.

Consider `COc1cc(/C=N/n2c(-c3ccc(Cl)cc3Cl)n[nH]c2=S)ccc1O`, for which the “diameter of the inhibition zone (DIZ)” value in the assay on Klebsiella pneumoniae, with Staphylococcus aureus [1], in the assay on Escherichia coli [2] and with Candida albicans [3] was 3 mm throughout.

In the assay with Staphylococcus aureus [16], `COc1cc(/C=C/c2ccc(OCc3cn(CCCCC(=O)O)nn3)cc2)cc(OC)c1` had an MIC of 78.1 µg/mL (≈ 179 µM).

On to `COc1cc([N+](=O)[O-])c(OC)cc1-n1cc(C(C)N2C(=O)C(=O)c3ccccc32)nn1` (stereo not given), for which the “diameter of the inhibition zone (DIZ)” value in the assay on Staphylococcus aureus [17] is 9 mm.

`C[C@@H]1[C@H](O)[C@@H](C)/C=C/C=C/C=C/C=C/C=C/C=C/C=C/[C@H](O[C@@H]2O[C@H](C)[C@@H](O)[C@H](N)[C@@H]2O)C[C@@H]2O[C@](O)(C[C@@H](O)C[C@@H](O)[C@H](O)CC[C@@H](O)C[C@@H](O)CC(=O)O[C@H]1C)C[C@H](O)[C@H]2C(=O)O` [AMPHOTERICIN B]: the values for the MIC in the assay on Rhizopus, with Candida albicans [23] and with Aspergillus flavus were 16 µg/mL (≈ 17.3 µM), 8 µg/mL (≈ 8.66 µM) and 8 µg/mL (≈ 8.66 µM), respectively.

Regarding `C[C@@H](c1nc(-c2ccc(C#N)cc2)cs1)[C@](O)(Cn1cncn1)c1ccc(F)cc1F` [RAVUCONAZOLE], the MIC80 in the assay on Cryptococcus neoformans [5] is 0.125 µg/mL (≈ 0.286 µM); with Trichophyton rubrum, 0.125 µg/mL (≈ 0.286 µM); in the assay on Candida albicans [6], 0.25 µg/mL (≈ 0.571 µM); with Nannizzia gypsea, 1 µg/mL (≈ 2.29 µM); with Aspergillus fumigatus [7] it was 2 µg/mL (≈ 4.57 µM); with Candida albicans [8], 0.062 µg/mL (≈ 0.142 µM). The MIC80 in the assay with Nakaseomyces glabratus was 0.125 µg/mL (≈ 0.286 µM).

A word on the MIC80: it is an inhibitory concentration at the 80% level, which refers to growth in some studies and to a panel of isolates in others. Usually MIC stands for the least concentration at which growth counts as inhibited.
